Reference: ChEMBL document CHEMBL4311981, “Synthesis, anticancer activity, and molecular modeling of 1,4-naphthoquinones that inhibit MKK7 and Cdc25” (Eur J Med Chem, 2019)
Active and inactive are the calls of the source. No cut-off for these calls is given here.

Assays:
[1] = system: MCF7; experiment: Cytotoxicity against human MCF7 cells assessed as reduction in cell viability incubated for 24 hrs by CellTiter-Glo luminescent cell viability assay; format: functional, cell-based; conditions: MCF7, 24 h
[2] = system: THP-1; experiment: Cytotoxicity against human THP1 cells assessed as reduction in cell viability incubated for 24 hrs by CellTiter-Glo luminescent cell viability assay; format: functional, cell-based; conditions: THP-1, 24 h
[3] = system: U-937; experiment: Cytotoxicity against human U937 cells assessed as reduction in cell viability incubated for 24 hrs by CellTiter-Glo luminescent cell viability assay; format: functional, cell-based; conditions: U-937, 24 h
[4] = system: LS174T; experiment: Cytotoxicity against human LS174T cells assessed as reduction in cell viability incubated for 24 hrs by CellTiter-Glo luminescent cell viability assay; format: functional, cell-based
[5] = target: T1, Dual specificity mitogen-activated protein kinase kinase 7 (Homo sapiens, UniProt O14733); experiment: biochemical
T1 sequence (O14733 whole entry): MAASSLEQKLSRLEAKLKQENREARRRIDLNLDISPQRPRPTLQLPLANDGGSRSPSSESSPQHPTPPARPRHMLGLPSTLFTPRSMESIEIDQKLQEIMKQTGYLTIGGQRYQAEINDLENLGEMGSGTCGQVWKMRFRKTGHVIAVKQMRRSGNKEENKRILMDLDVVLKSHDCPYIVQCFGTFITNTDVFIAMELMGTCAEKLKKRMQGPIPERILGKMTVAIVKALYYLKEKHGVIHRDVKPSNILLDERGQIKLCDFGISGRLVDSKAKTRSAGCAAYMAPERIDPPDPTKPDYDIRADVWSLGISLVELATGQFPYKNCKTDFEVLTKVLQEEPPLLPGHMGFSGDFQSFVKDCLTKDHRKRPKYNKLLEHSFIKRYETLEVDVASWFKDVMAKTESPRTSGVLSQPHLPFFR
Description: Binding affinity to MKK7 (unknown origin) expressed in HEK293 cells assessed as dissociation constant by kinomescan method

[6] = system: Jurkat; experiment: cells; conditions: Homo sapiens, 24 h
Description: Cytotoxicity against human Jurkat cells assessed as reduction in cell viability incubated for 24 hrs by CellTiter-Glo luminescent cell viability assay

[7] = target: T2, Neutrophil elastase (Homo sapiens) (UniProt P08246); experiment: Inhibition of recombinant HNE (unknown origin) at <50 uM using N-methylsuccinyl-Ala-Ala-Pro-Val-7-amino-4-methylcoumarin, as a substrate measured every 30 sec for 10 mins by fluorometric assay
T2 sequence (whole entry): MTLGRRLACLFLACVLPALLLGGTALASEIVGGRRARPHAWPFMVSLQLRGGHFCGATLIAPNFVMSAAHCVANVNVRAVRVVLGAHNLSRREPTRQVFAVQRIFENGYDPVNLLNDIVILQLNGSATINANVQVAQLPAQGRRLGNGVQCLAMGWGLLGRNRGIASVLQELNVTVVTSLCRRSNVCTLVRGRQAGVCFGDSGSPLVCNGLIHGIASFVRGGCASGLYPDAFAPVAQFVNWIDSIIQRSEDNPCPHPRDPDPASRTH

[8] = target: T3, M-phase inducer phosphatase 1 (Homo sapiens, UniProt P30304)
T3 sequence (P30304 whole entry): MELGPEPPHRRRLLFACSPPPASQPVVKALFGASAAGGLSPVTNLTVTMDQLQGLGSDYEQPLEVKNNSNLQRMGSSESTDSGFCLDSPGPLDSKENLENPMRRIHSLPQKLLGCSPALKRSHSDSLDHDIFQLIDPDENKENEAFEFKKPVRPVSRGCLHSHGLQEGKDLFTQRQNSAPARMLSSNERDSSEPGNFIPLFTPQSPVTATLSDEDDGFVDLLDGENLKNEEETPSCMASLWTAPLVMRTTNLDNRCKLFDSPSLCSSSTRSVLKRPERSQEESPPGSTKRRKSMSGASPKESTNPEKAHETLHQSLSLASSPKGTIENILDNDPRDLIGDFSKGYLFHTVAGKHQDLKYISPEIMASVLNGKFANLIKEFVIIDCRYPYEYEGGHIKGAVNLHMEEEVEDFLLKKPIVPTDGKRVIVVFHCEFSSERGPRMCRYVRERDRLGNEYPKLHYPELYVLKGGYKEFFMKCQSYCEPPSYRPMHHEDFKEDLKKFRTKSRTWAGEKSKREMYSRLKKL
Description: Inhibition of recombinant Cdc25A (unknown origin) using OMFP as substrate measured every 30 sec for 10 mins by fluorometric assay

[9] = system: HL-60; experiment: Cytotoxicity against human HL60 cells assessed as reduction in cell viability incubated for 24 hrs by CellTiter-Glo luminescent cell viability assay; format: functional, cell-based; conditions: HL-60, 24 h
[10] = target: T4, M-phase inducer phosphatase 2 (Homo sapiens, UniProt P30305)
T4 sequence (P30305 whole entry): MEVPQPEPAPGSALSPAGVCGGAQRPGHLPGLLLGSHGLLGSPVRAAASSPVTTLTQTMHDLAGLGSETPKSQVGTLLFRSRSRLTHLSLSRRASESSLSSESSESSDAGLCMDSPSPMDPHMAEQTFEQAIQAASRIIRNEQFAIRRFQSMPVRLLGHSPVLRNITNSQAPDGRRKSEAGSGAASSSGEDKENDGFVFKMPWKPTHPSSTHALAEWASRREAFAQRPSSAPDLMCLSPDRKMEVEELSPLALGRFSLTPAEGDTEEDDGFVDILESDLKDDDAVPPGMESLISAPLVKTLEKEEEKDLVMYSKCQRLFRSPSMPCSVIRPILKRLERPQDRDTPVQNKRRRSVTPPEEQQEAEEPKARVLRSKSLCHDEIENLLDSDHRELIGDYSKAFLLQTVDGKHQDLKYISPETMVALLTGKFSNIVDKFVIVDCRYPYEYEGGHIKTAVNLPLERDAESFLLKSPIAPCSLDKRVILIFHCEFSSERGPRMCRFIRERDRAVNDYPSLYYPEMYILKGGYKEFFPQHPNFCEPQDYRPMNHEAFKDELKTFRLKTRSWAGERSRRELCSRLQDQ
Description: Inhibition of recombinant Cdc25B (unknown origin) using OMFP as substrate measured every 30 sec for 10 mins by fluorometric assay

[11] = system: SW982; experiment: Cytotoxicity against human SW982 cells assessed as reduction in cell viability incubated for 24 hrs by CellTiter-Glo luminescent cell viability assay; format: functional, cell-based; conditions: SW982, 24 h
[12] = system: MONO-MAC-6; experiment: Cytotoxicity against human MONO-MAC-6 cells assessed as reduction in cell viability incubated for 24 hrs by CellTiter-Glo luminescent cell viability assay; format: functional, cell-based; conditions: MONO-MAC-6, 24 h
[13] = system: A549; experiment: Cytotoxicity against human A549 cells assessed as reduction in cell viability incubated for 24 hrs by CellTiter-Glo luminescent cell viability assay; format: functional, cell-based; conditions: A549, 24 h
[14] = system: PBMC; experiment: Cytotoxicity against human PBMC cells assessed as reduction in cell viability incubated for 24 hrs by CellTiter-Glo luminescent cell viability assay; format: cell-based; conditions: read-out: IC50
[15] = target: T5, M-phase inducer phosphatase 1 (Homo sapiens) (UniProt P30304); experiment: Inhibition of recombinant Cdc25A (unknown origin) at <50 uM using OMFP as substrate measured every 30 sec for 10 mins by fluorometric assay
T5 sequence (whole entry): T3 sequence (P30304 whole entry)

[16] = target: T6, Dual specificity mitogen-activated protein kinase kinase 7 (Homo sapiens) (UniProt O14733); experiment: Binding affinity to MKK7 (unknown origin) expressed in HEK293 cells assessed as dissociation constant at <30 uM by kinomescan method; format: cell-based
T6 sequence (whole entry): T1 sequence (O14733 whole entry)

[17] = target: T7, M-phase inducer phosphatase 2 (Homo sapiens) (UniProt P30305); experiment: Inhibition of recombinant Cdc25B (unknown origin) at <50 uM using OMFP as substrate measured every 30 sec for 10 mins by fluorometric assay
T7 sequence (whole entry): T4 sequence (P30305 whole entry)

[18] = system: A549; experiment: Cytotoxicity against human A549 cells assessed as reduction in cell viability at <50 uM incubated for 24 hrs by CellTiter-Glo luminescent cell viability assay; format: functional, cell-based
[19] = system: LS174T; experiment: Cytotoxicity against human LS174T cells assessed as reduction in cell viability at <50 uM incubated for 24 hrs by CellTiter-Glo luminescent cell viability assay; format: functional, cell-based
[20] = system: SW982; experiment: Cytotoxicity against human SW982 cells assessed as reduction in cell viability at <50 uM incubated for 24 hrs by CellTiter-Glo luminescent cell viability assay; format: functional, cell-based
[21] = system: PBMC; experiment: Cytotoxicity against human PBMC cells assessed as reduction in cell viability at <50 uM incubated for 24 hrs by CellTiter-Glo luminescent cell viability assay; format: cell-based

| SMILES | IC50 [1] | IC50 [2] | IC50 [3] | IC50 [4] | Kd [5] | IC50 [6] | inhibition [7] | IC50 [8] | IC50 [9] | IC50 [10] | IC50 [11] | IC50 [12] | IC50 [13] | IC50 [14] | other results |
| --- | --- | --- | --- | --- | --- | --- | --- | --- | --- | --- | --- | --- | --- | --- | --- |
| CCSC1=C(C)C(=O)c2ccccc2C1=O | 12.2 µM | 2.9 µM | 6.7 µM | 17.3 µM | 13 µM | 3.9 µM | inactive | 5.5 µM | 3.1 µM | 4.7 µM | 7.8 µM | 3.3 µM | 21.5 µM |  |  |
| O=C1C(SCCO)=C(SCCO)C(=O)c2ccccc21 | 9.4 µM |  | 3.9 µM | 18.1 µM | 1.1 µM | 3.7 µM | inactive |  | 1 µM |  | 7.9 µM | 4.2 µM | 13.1 µM | 7.8 µM |  |
| O=C1C(Cl)=C(NCCCN2CCOCC2)C(=O)c2ccccc21 |  |  |  |  |  |  | inactive |  |  |  |  |  |  |  | inhibition [15]: inactive; inhibition [16]: inactive; inhibition [17]: inactive |
| COC1=C(OC)C(=O)c2ccccc2C1=O | 6.3 µM | 8.2 µM | 11.3 µM | 27.9 µM | 27 µM |  | inactive | 8.9 µM | 5.4 µM | 17.4 µM | 20.6 µM | 3.6 µM | 15.6 µM | 18.5 µM |  |
| COC1=C(C)C(=O)c2ccccc2C1=O |  | 47.3 µM | 35.1 µM |  |  | 49.2 µM | inactive | 22.3 µM | 20.4 µM | 33.1 µM |  | 18.4 µM |  |  | Activity [18]: inactive; Activity [19]: inactive; Activity [20]: inactive; Activity [16]: inactive; Activity [21]: Non-Toxic |
| CC(C)(C)[C@H]1CC[C@H](CC2=C(O)C(=O)c3ccccc3C2=O)CC1 [BUPARVAQUONE] |  |  |  |  |  |  | inactive |  |  | 12 µM |  |  |  |  | inhibition [15]: inactive; Activity [16]: inactive |
| O=C(O)CCSC1=CC(=O)c2ccccc2C1=O |  | 17.6 µM | 18.6 µM |  | 0.23 µM | 9.1 µM | inactive | 1.5 µM | 15 µM | 1.6 µM | 10.5 µM | 22 µM |  | 23.4 µM |  |
| COCCSC1=C(C)C(=O)c2ccccc2C1=O | 14.9 µM | 2.2 µM | 5.3 µM | 15.7 µM | 14 µM | 3.2 µM | inactive | 5.7 µM | 1.6 µM | 6.5 µM | 9.7 µM | 1.7 µM | 18.6 µM |  |  |
